Laboratory results taken from ChEMBL document CHEMBL1154382, “Preliminary SAR analysis of novel antiproliferative N(6),5'-bis-ureidoadenosine derivatives” (2009).

Key:
Assay type in all cases: functional
[1] = tested on: A549; test: Antiproliferative activity against human A549 cells
[2] = tested on: CCRF-CEM; test: Antiproliferative activity against human CCRF-CEM cells
[3] = tested on: T47D; test: Antiproliferative activity against human T47D cells
[4] = tested on: EKVX; test: Antiproliferative activity against human EKVX cells
[5] = tested on: KM12; test: Antiproliferative activity against human KM12 cells
[6] = tested on: OVCAR-8; test: Antiproliferative activity against human OVCAR8 cells
[7] = tested on: SNB-75; test: Antiproliferative activity against human SNB75 cells
[8] = tested on: M14; test: Antiproliferative activity against human M14 cells
[9] = tested on: SF-539; test: Antiproliferative activity against human SF539 cells
[10] = tested on: 786-0; test: Antiproliferative activity against human 786-0 cells
[11] = Antiproliferative activity against human […] cells
[12] = tested on: SW-620; test: Antiproliferative activity against human SW620 cells
[13] = tested on: MDA-MB-231; test: Antiproliferative activity against human MDA-MB-231 cells
[14] = tested on: OVCAR-4; test: Antiproliferative activity against human OVCAR4 cells
[15] = tested on: OVCAR-5; test: Antiproliferative activity against human OVCAR5 cells
[16] = tested on: OVCAR-3; test: Antiproliferative activity against human OVCAR-3 cells
[17] = tested on: SK-MEL-2; test: Antiproliferative activity against human SK-MEL-2 cells
[18] = tested on: SN12C; test: Antiproliferative activity against human SN12C cells
[19] = tested on: A498; test: Antiproliferative activity against human A498 cells
[20] = tested on: CAKI-1; test: Antiproliferative activity against human Caki1 cells
[21] = tested on: BT-549; test: Antiproliferative activity against human BT549 cells
[22] = tested on: UO-31; test: Antiproliferative activity against human UO31 cells
[23] = tested on: SR; test: Antiproliferative activity against human SR cells
[24] = tested on: NCI-H322M; test: Antiproliferative activity against human NCI-H322M cells
[25] = tested on: U-251; test: Antiproliferative activity against human U251 cells
[26] = tested on: NCI-H522; test: Antiproliferative activity against human NCI-H522 cells
[27] = tested on: UACC-62; test: Antiproliferative activity against human UACC62 cells
[28] = tested on: PC-3; test: Antiproliferative activity against human PC3 cells
[29] = tested on: HCT-116; test: Antiproliferative activity against human HCT116 cells
[30] = tested on: SK-OV-3; test: Antiproliferative activity against human SKOV3 cells
[31] = tested on: MDA-MB-435; test: Antiproliferative activity against human MDA-MB-435 cells
[32] = tested on: DU-145; test: Antiproliferative activity against human DU145 cells
[33] = tested on: RXF 393; test: Antiproliferative activity against human RXF393 cells
[34] = tested on: MCF7; test: Antiproliferative activity against human MCF7 cells
[35] = tested on: HL-60(TB); test: Antiproliferative activity against human HL-60(TB) cells
[36] = tested on: MOLT-4; test: Antiproliferative activity against human MOLT4 cells
[37] = tested on: SK-MEL-28; test: Antiproliferative activity against human SK-MEL-28 cells
[38] = tested on: K562; test: Antiproliferative activity against human K562 cells
[39] = tested on: HCC 2998; test: Antiproliferative activity against human HCC2998 cells
[40] = tested on: SF-295; test: Antiproliferative activity against human SF295 cells
[41] = tested on: HOP-62; test: Antiproliferative activity against human HOP62 cells
[42] = tested on: IGROV-1; test: Antiproliferative activity against human IGROV1 cells
[43] = tested on: NCI-H23; test: Antiproliferative activity against human NCI-H23 cells
[44] = tested on: SF-268; test: Antiproliferative activity against human SF268 cells
[45] = tested on: ACHN; test: Antiproliferative activity against human ACHN cells
[46] = tested on: SK-MEL-5; test: Antiproliferative activity against human SK-MEL-5 cells
[47] = tested on: LOX IMVI; test: Antiproliferative activity against human LOXIMVI cells
[48] = tested on: NCI-H226; test: Antiproliferative activity against human NCI-H226 cells
[49] = tested on: HCT-15; test: Antiproliferative activity against human HCT15 cells
[50] = tested on: TK-10; test: Antiproliferative activity against human TK10 cells
[51] = tested on: Malme-3M; test: Antiproliferative activity against human MALME-3M cells
[52] = Antiproliferative activity against human Hs 578T cells
[53] = tested on: NCI-H460; test: Antiproliferative activity against human NCI-H460 cells
[54] = tested on: UACC-257; test: Antiproliferative activity against human UACC257 cells
[55] = tested on: HOP-92; test: Antiproliferative activity against human HOP92 cells
[56] = tested on: HT-29; test: Antiproliferative activity against human HT-29 cells
[57] = tested on: COLO 205; test: Antiproliferative activity against human COLO205 cells
[58] = tested on: SNB-19; test: Antiproliferative activity against human SNB19 cells

CCOC(=O)C[C@H]1[C@@H](O[Si](C)(C)C(C)(C)C)[C@H](n2cnc3c(NC(=O)Nc4ccccc4)ncnc32)O[C@@H]1CNC(=O)NC
GI50 [1]: 4.18 µM
GI50 [2]: 6.69 µM
GI50 [3]: 2.55 µM
GI50 [4]: 17.7 µM
GI50 [5]: 3.95 µM
GI50 [6]: 4.92 µM
GI50 [7]: 4.56 µM
GI50 [8]: 2.51 µM
GI50 [9]: 5.19 µM
GI50 [10]: 2 µM
GI50 [11]: 1.09 µM
GI50 [12]: 4.8 µM
GI50 [13]: 3.96 µM
GI50 [14]: 12.3 µM
GI50 [15]: 31.1 µM
GI50 [16]: 4.59 µM
GI50 [17]: 5.42 µM
GI50 [18]: 9.1 µM
GI50 [19]: 3.34 µM
GI50 [20]: 29.7 µM
GI50 [21]: > 100 µM
GI50 [22]: 12.1 µM
GI50 [23]: 2.23 µM
GI50 [24]: > 100 µM
GI50 [25]: 4.69 µM
GI50 [26]: 4.36 µM
GI50 [27]: > 100 µM
GI50 [28]: 2.25 µM
GI50 [29]: 3.2 µM
GI50 [30]: 21 µM
GI50 [31]: 6.21 µM
GI50 [32]: 4.97 µM
GI50 [33]: 2.01 µM
GI50 [34]: 3.42 µM
GI50 [35]: 0.00301 µM
GI50 [36]: 2.39 µM
GI50 [37]: 6.85 µM
GI50 [38]: 3.59 µM
GI50 [39]: > 100 µM
GI50 [40]: 5.73 µM
GI50 [41]: 8.96 µM
GI50 [42]: 3.85 µM
GI50 [43]: 33.3 µM
GI50 [44]: 6.53 µM
GI50 [45]: 8.55 µM
GI50 [46]: 4.34 µM
GI50 [47]: 5.46 µM
GI50 [48]: > 100 µM
GI50 [49]: 8.5 µM
GI50 [50]: 12.4 µM
GI50 [51]: 10.3 µM
GI50 [52]: 3.6 µM
GI50 [53]: 5.54 µM
GI50 [54]: 5.68 µM
GI50 [55]: < 0.01 µM
GI50 [56]: 4.2 µM
GI50 [57]: 3.84 µM
GI50 [58]: 29 µM
